{"source": "paper PMC6153520", "about": "“Proteasome inhibition and mechanism of resistance to a synthetic, library-based hexapeptide” (Investigational New Drugs, 2018)", "key": {"[1]": {"system": "caspase-like proteasome activity", "test": "Proteasome activity in THP1 cell extracts (fluorogenic substrate)", "type": "biochemical, human", "conditions": "1–100 μM, 1 h exposure", "protocol": "(§1) Chymotrypsin-like, trypsin-like and caspase-like proteolytic activities of the proteasome were determined in freshly prepared cell lysates as described previously. Five million untreated or bortezomib-exposed THP1 cells were washed 3 times with ice-cold PBS and pelleted by centrifugation (5 min, 12,000 RPM, 4 °C). Cell pellets were then resuspended in an ATP-containing lysis buffer; 10 mM Tris-HCl buffer (pH 7.8) containing 5 mM ATP, 0.5 mM DTT and 5 mM MgCl2, and kept on ice for 10 min. For complete lysis, cells were sonicated (MSE sonicator, amplitude 7, for 3 × 5 s with 20 s time intervals at 4 °C) followed by centrifugation (5 min, 12,000 RPM, 4 °C) to remove cell debris. The supernatant was collected and protein concentration was determined using the Bio-Rad protein assay. […] The release of amc (7-amino-4-methyl-coumarin) was monitored online over a 2-h time period at 37 °C with 5 min intervals. Fluorescence was measured on a Tecan SpectraFluor apparatus (Giessen, The Netherlands) using excitation and emission wavelengths of 360 and 465 nm, respectively. Proteolytic activity was calculated from the slopes of the linear portion of the curves. All results were expressed as percentage relative to untreated THP1/WT cells (100%). […]"}, "[2]": {"system": "trypsin-like proteasome activity", "test": "Proteasome activity in THP1 cell extracts (fluorogenic substrate)", "type": "biochemical, human", "conditions": "1–100 μM, 1 h exposure", "protocol": "as §1"}, "[3]": {"target": "T1, proteasome purified from bovine liver (Bos taurus, UniProt Q32KL2)", "T1 construct": "Proteasome was purified from bovine liver as described previously; from tissue; host or cells: bovine liver", "test": "4A6 cleavage assay (MALDI-TOF)", "type": "biochemical", "conditions": "1 μg proteasome, 1 μg 4A6, pH 8.5, 45 °C, 16 h", "protocol": "Proteasome was purified from bovine liver as described previously. For digestion assays, 1 μg proteasome was incubated with 1 μg 4A6 in 50 μl of 50 mM Tris-HCl buffer pH 8.5 at 45 °C for 16 h. Subsequently, the reaction mixture was lyophilized and peptides purified using reversed-phase ZipTip®C18 tips (Millipore). The purified peptide mixture was mixed in a 1:1 ratio with 10 mg/ml 2,5-dihydroxybenzoic acid (DHB, Bruker Daltonik) matrix solution in 0.1% TFA and spotted onto a MALDI (matrix assisted laser desorption/ ionization) target plate. MALDI-TOF analysis was performed on an Autoflex, linear MALDI-TOF-MS (Bruker Daltonik GmbH, Bremen, Germany). Spectra were analyzed with flexAnalysis software (Bruker Daltonik)."}, "proteasome β1 subunit": {"system": "proteasome β1 subunit", "test": "Western blot, proteasome subunit expression", "type": "cell-based, human", "conditions": "0.1–10 μM, 24 h; THP1/WT, THP1/BTZ100, THP1/BTZ (−100)", "protocol": "(§2) Western blot analysis to determine protein levels of (i) β1, β2 and β5 proteasome subunits and (ii) the accumulation of ubiquitinated proteins after treatment with 4A6 was performed essentially as described previously. Cells were harvested in the mid-log phase of growth and washed 3 times with ice-cold buffered saline pH 7.4. Total cell lysates of 5 × 10^6 cells were prepared by resuspension in 500 μl lysis buffer containing: 50 mM Tris-HCl (pH 7.6), 5 mM dithiotreitol, 20 μl PIC (Protease Inhibitor Cocktail; 1 tablet/ml H2O), 20% glycerol and 0.5% NP-40. The suspension was sonicated (MSE sonicator, amplitude 7, for 3 × 5 s with 20 s time intervals at 4 °C) and centrifuged in an Eppendorf micro centrifuge (5 min, 12,000 rpm, 4 °C). Protein content of the supernatant was determined by the Bio-Rad protein assay. 20–30 μg of total cell lysates were fractionated on a 10% polyacrylamide gel containing SDS and transferred onto a PVDF membrane. The membranes were pre-incubated overnight at 4 °C in blocking buffer (5% Bio-Rad Blocker in TBS-T; 10 mM Tris-HCl, pH 8.0, 0.15 M NaCl, 0.1% Tween-20) to prevent non-specific antibody binding. After blocking, the membranes were incubated for 1 h at room temperature with primary antibodies for proteasome subunit β1 (1:1000, PW8140), β2 (1:1000, PW8145) and β5 (1:1000, PW8895) or ubiquitin (1:1000, Santa-Cruz, SC-8017). An antibody to α-tubulin was used (1:1000, Santa Cruz, sc-8035) to check and normalize for any loading differences. After 3 washing steps with TBS-T, the membranes were incubated for 1 h with HRP-labelled donkey-anti-rabbit (1:6000, Amersham, UK) or goat-anti-mouse (1:6000, Dako, Glostrup, Denmark) as secondary antibody. Detection of antibody binding was followed by chemoluminescence using Supersignal (Pierce Biotechnology, Rockford, USA) according to the manufacturers’ instructions. […] The signal intensity was determined densitometrically using Quantity One software (Bio-Rad) and was expressed relative to the intensity of the α-tubulin signal."}, "proteasome β2 subunit": {"system": "proteasome β2 subunit", "test": "Western blot, proteasome subunit expression", "type": "cell-based, human", "conditions": "0.1–10 μM, 24 h; THP1/WT, THP1/BTZ100, THP1/BTZ (−100)", "protocol": "as §2"}, "proteasome β5 subunit": {"system": "proteasome β5 subunit", "test": "Western blot, proteasome subunit expression", "type": "cell-based, human", "conditions": "10 μM 4A6, 24 h; THP1/WT, THP1/BTZ100 and THP1/BTZ (−100); densitometry", "protocol": "as §2"}, "[4]": {"system": "P-glycoprotein (Pgp/ABCB1)", "set-up": "method as in PMID 11289130", "conditions": "ref [32]; cited from earlier work"}, "[5]": {"system": "Multidrug Resistance-associated Protein 1 (MRP1/ABCC1)", "set-up": "method as in PMID 11289130", "conditions": "ref [32]; cited from earlier work"}}, "note": "Where a SMILES comes first, the peptide text is derived from it. [ ]: non-standard residue; d: D form. The star is where a group is joined. His(τ-Bzl) = N[C@@H](Cc1cn(Cc2ccccc2)cn1)C(=O)O; Nle = CCCC[C@H](N)C(=O)O; NHBn = c1ccc(CN*)cc1; Bn = c1ccc(C*)cc1; OtBu = CC(C)(C)O*; tBu = CC(C)(C)*", "data": [{"compound": "CCCC[C@H](NC(=O)[C@@H](NC(=O)[C@H](Cc1cn(Cc2ccccc2)cn1)NC(=O)[C@@H](NC(C)=O)[C@@H](C)OC(C)(C)C)[C@@H](C)OCc1ccccc1)C(=O)N[C@@H](CCC(=O)OC(C)(C)C)C(=O)NCC(=O)NCc1ccccc1", "note": "[4A6, Ac-Thr(tBu)-His(Bzl)-Thr(Bzl)-Nle-Glu(OtBu)-Gly-Bza] (Ac-T(tBu)[His(τ-Bzl)]T(Bn)[Nle]E(OtBu)G-NHBn)", "values": [{"measurement": "inhibitory effect on caspase-like activity", "setting": "[1]", "result": "no inhibitory effect"}, {"measurement": "inhibitory effect on trypsin-like activity", "setting": "[2]", "result": "no inhibitory effect"}, {"measurement": "proteolytic cleavage by purified proteasomes", "setting": "[3]", "result": "predominantly cleaved at the P4-P5 position"}, {"measurement": "effect on expression of the β1 proteasome subunit", "setting": "proteasome β1 subunit", "result": "No significant effects"}, {"measurement": "effect on expression of the β2 proteasome subunit", "setting": "proteasome β2 subunit", "result": "No significant effects"}, {"measurement": "increase in β5 subunit induction vs drug-free controls", "setting": "proteasome β5 subunit", "result": "3–5 fold"}, {"measurement": "ability to reverse efflux pump MDR (ABCB1)", "setting": "[4]", "result": "lacked the ability to reverse efflux pump MDR"}, {"measurement": "substrate of MDR efflux transporter ABCB1", "setting": "[4]", "result": "substrate"}, {"measurement": "ability to reverse efflux pump MDR (ABCC1)", "setting": "[5]", "result": "lacked the ability to reverse efflux pump MDR"}, {"measurement": "substrate of MDR efflux transporter ABCC1", "setting": "[5]", "result": "substrate"}]}]}
